Reference: ChEMBL document CHEMBL5724696, “Autophagy assay results for EUbOPEN Chemogenomics Library” (2024)

Columns and labels:
Format in all cases: functional, Homo sapiens
U2OS [1] = assay: (§1) Here: values are normalized to the positive (DMSO; basel flux = defined as 100% suppression) and negative (250nM Torin1; mTOR inhibitor; maximal inducer of autophagy defined as 0% suppression) control compounds and represented as % of ER-phagy suppression. […] The impact of autophagy induction on cells is complex and depends on the affected target. […] Of note, treatment concentrations may be sub-optimal for specific compounds, leading to false negative annotations.; conditions: Compound Concentration 1 uM, Culturing Media DMEM, 1 % Penicillin/Streptomycin, 10% Fetal bovin serum Add-On: blasticidin, Screening Media Control DMEM, 10% Fetal bovin serum Add-On: 1 µg/ml Doxycyclin, Screening Media Samples DMEM, 10% Fetal bovin serum Add-On: 1 µg/ml Doxycyclin 250nM Torin1
U2OS [2] = assay: as §1; conditions: Compound Concentration 1 uM, Culturing Media DMEM, 1 % Penicillin/Streptomycin, 10% Fetal bovin serum Add-On: blasticidin, Screening Media Control DMEM, 10% Fetal bovin serum Add-On: 1 µg/ml Doxycyclin, Screening Media Samples DMEM, 10% Fetal bovin serum Add-On: 1 µg/ml Doxycyclin 250nM Torin1; remark: listed apart in the source
U2OS [3] = assay: (§2) Here: values are normalized to the negative (DMSO; defined as 0% autophagy induction) and positive (250nM Torin1; mTOR inhibitor; defined as maximal inducer of autophagy = 100%) control compounds and represented as % of autophagy induction. […] The impact of autophagy induction on cells is complex and depends on the affected target. As such, the magnitude of a phenotype may not be equally mirrored in the %-value of autophagy induction and vice versa. The dynamics of the induction may indicate the mode of activation: e.g. activation via phosphorylation or a signaling cascade may occur fast, while activation via transcription factors may take considerably longer. […] Of note, treatment concentrations may be sub-optimal for specific compounds, leading to false negative annotations.; conditions: Culturing Media DMEM, 1 % Penicillin/Streptomycin, 10% Fetal bovin serum Add-On: No, Screening Media Control DMEM, Screening Media Samples DMEM
TERT-RPE1 = assay: as §2; conditions: Culturing Media DMEM/F12 (1:1), 1 % Penicillin/Streptomycin, 10% Fetal bovin serum Add-On: No, Screening Media Control DMEM/F12 (1:1), Screening Media Samples DMEM/F12 (1:1)
U2OS [4] = assay: as §2; conditions: Culturing Media DMEM, 1 % Penicillin/Streptomycin, 10% Fetal bovin serum Add-On: No, Screening Media Control DMEM, Screening Media Samples DMEM; remark: listed apart in the source
[5] = Compound Concentration 0.5 uM, Timepoint 12 hours
[6] = Compound Concentration 0.5 uM, Timepoint 24 hours
[7] = Compound Concentration 0.5 uM, Timepoint 36 hours
[8] = Compound Concentration 0.5 uM, Timepoint 60 hours
[9] = Compound Concentration 2 uM, Timepoint 12 hours
[10] = Compound Concentration 2 uM, Timepoint 24 hours
[11] = Compound Concentration 2 uM, Timepoint 36 hours
[12] = Compound Concentration 2 uM, Timepoint 60 hours
[13] = Compound Concentration 10 uM, Timepoint 12 hours
[14] = Compound Concentration 10 uM, Timepoint 24 hours
[15] = Compound Concentration 10 uM, Timepoint 36 hours
[16] = Compound Concentration 10 uM, Timepoint 60 hours

CCCCNc1ncc(-c2ccc(CN3CCOCC3)cn2)c(N[C@H]2CC[C@H](O)CC2)n1
ER-phagy suppression (U2OS [1]; Timepoint 12 hours): -8.957% | ER-phagy suppression (U2OS [1]; Timepoint 24 hours): -7.3145% | ER-phagy suppression (U2OS [1]; Timepoint 36 hours): 4.583% | ER-phagy suppression (U2OS [1]; Timepoint 60 hours): 12.8118% | ER-phagy suppression (U2OS [2]; Timepoint 12 hours): -5.509% | ER-phagy suppression (U2OS [2]; Timepoint 24 hours): -21.7145% | ER-phagy suppression (U2OS [2]; Timepoint 36 hours): -31.345% | ER-phagy suppression (U2OS [2]; Timepoint 54 hours): -19.8135%

CC1=C(C#N)[C@@H](c2ccc3[nH]nc(C)c3c2)C(C#N)=C(c2ccc(Cl)cc2)N1 [BAY-827]
ER-phagy suppression (U2OS [1]; Timepoint 12 hours): -21.2779% | ER-phagy suppression (U2OS [1]; Timepoint 24 hours): -26.9283% | ER-phagy suppression (U2OS [1]; Timepoint 36 hours): -30.4241% | ER-phagy suppression (U2OS [1]; Timepoint 60 hours): -34.9366% | ER-phagy suppression (U2OS [2]; Timepoint 12 hours): -1.516% | ER-phagy suppression (U2OS [2]; Timepoint 24 hours): -21.7023% | ER-phagy suppression (U2OS [2]; Timepoint 36 hours): -24.9956% | ER-phagy suppression (U2OS [2]; Timepoint 54 hours): -14.7052%

CN(C)C1CC(n2cnc(-c3ccc(F)cc3)c2-c2ccnc3[nH]ccc23)C1 (stereo not given)
ER-phagy suppression (U2OS [1]; Timepoint 12 hours): -29.1009% | ER-phagy suppression (U2OS [1]; Timepoint 24 hours): -31.4509% | ER-phagy suppression (U2OS [1]; Timepoint 36 hours): -16.9551% | ER-phagy suppression (U2OS [1]; Timepoint 60 hours): -15.1332% | ER-phagy suppression (U2OS [2]; Timepoint 12 hours): 7.195% | ER-phagy suppression (U2OS [2]; Timepoint 24 hours): 4.326% | ER-phagy suppression (U2OS [2]; Timepoint 36 hours): 10.3106% | ER-phagy suppression (U2OS [2]; Timepoint 54 hours): 11.0097%

O=C(NCCCN1CCOC1=O)c1cnc(NCc2cc(Br)ccc2Br)nc1NC1CCCC1
ER-phagy suppression (U2OS [1]; Timepoint 12 hours): -10.749% | ER-phagy suppression (U2OS [1]; Timepoint 24 hours): -21.0292% | ER-phagy suppression (U2OS [1]; Timepoint 36 hours): -39.1494% | ER-phagy suppression (U2OS [1]; Timepoint 60 hours): -40.5418% | ER-phagy suppression (U2OS [2]; Timepoint 12 hours): -5.816% | ER-phagy suppression (U2OS [2]; Timepoint 24 hours): -18.1911% | ER-phagy suppression (U2OS [2]; Timepoint 36 hours): -20.9165% | ER-phagy suppression (U2OS [2]; Timepoint 54 hours): -12.0292%

C[C@@H](N)[C@H]1CC[C@H](C(=O)Nc2ccncc2)CC1.Cl.Cl
ER-phagy suppression (U2OS [1]; Timepoint 12 hours): -1.165% | ER-phagy suppression (U2OS [1]; Timepoint 24 hours): -12.4028% | ER-phagy suppression (U2OS [1]; Timepoint 36 hours): 0.04526% | ER-phagy suppression (U2OS [1]; Timepoint 60 hours): 2.669% | ER-phagy suppression (U2OS [2]; Timepoint 12 hours): -40.2837% | ER-phagy suppression (U2OS [2]; Timepoint 24 hours): -57.1688% | ER-phagy suppression (U2OS [2]; Timepoint 36 hours): -58.7515% | ER-phagy suppression (U2OS [2]; Timepoint 54 hours): -55.2677%

C[C@H](NC(=O)Nc1cc2[nH]ncc2c(CO)n1)c1ccccn1 [ERKi-NC]
ER-phagy suppression (U2OS [1]; Timepoint 12 hours): -23.4889% | ER-phagy suppression (U2OS [1]; Timepoint 24 hours): -22.8439% | ER-phagy suppression (U2OS [1]; Timepoint 36 hours): -26.5362% | ER-phagy suppression (U2OS [1]; Timepoint 60 hours): -20.3879% | ER-phagy suppression (U2OS [2]; Timepoint 12 hours): 16.3207% | ER-phagy suppression (U2OS [2]; Timepoint 24 hours): -4.124% | ER-phagy suppression (U2OS [2]; Timepoint 36 hours): -11.6627% | ER-phagy suppression (U2OS [2]; Timepoint 54 hours): -9.3851%

CC(=O)NCC(=O)N1[C@@H]2CC[C@H]1c1ccc(Nc3ncc(C(F)(F)F)c(NC4CCC4)n3)cc12 [PF-03814735]
ER-phagy suppression (U2OS [1]; Timepoint 12 hours): 2.1297% | ER-phagy suppression (U2OS [1]; Timepoint 24 hours): 18.4214% | ER-phagy suppression (U2OS [1]; Timepoint 36 hours): 21.3987% | ER-phagy suppression (U2OS [1]; Timepoint 60 hours): 29.5902% | ER-phagy suppression (U2OS [2]; Timepoint 12 hours): -4.576% | ER-phagy suppression (U2OS [2]; Timepoint 24 hours): -22.3849% | ER-phagy suppression (U2OS [2]; Timepoint 36 hours): -35.8376% | ER-phagy suppression (U2OS [2]; Timepoint 54 hours): -44.2787%

Cl.Cl.Nc1nccc(-c2c(-c3ccc(F)cc3)ncn2C2CCCCC2)n1
ER-phagy suppression (U2OS [2]; Timepoint 12 hours): 12.007% | ER-phagy suppression (U2OS [2]; Timepoint 24 hours): 14.1245% | ER-phagy suppression (U2OS [2]; Timepoint 36 hours): 19.9643% | ER-phagy suppression (U2OS [2]; Timepoint 54 hours): 25.2011%

CCC(=O)N1CCN(c2ccc(-n3c(=O)ccc4cnc5ccc(-c6cnc7ccccc7c6)cc5c43)cc2C(F)(F)F)CC1 [TORIN1]
ER-phagy suppression (U2OS [2]; Timepoint 12 hours): 3.915% | ER-phagy suppression (U2OS [2]; Timepoint 24 hours): -7.7479% | ER-phagy suppression (U2OS [2]; Timepoint 36 hours): -6.712% | ER-phagy suppression (U2OS [2]; Timepoint 54 hours): -3.9465%

Cc1c(C2=CCN(C(=O)N(C)C(C)C)CC2)nnn1-c1cccnc1F
autophagy induction (U2OS [3]; [5]): 2.838% | autophagy induction (U2OS [3]; [6]): 0.05909% | autophagy induction (U2OS [3]; [7]): -0.5317% | autophagy induction (U2OS [3]; [8]): -0.9964% | autophagy induction (U2OS [3]; [9]): -1.633% | autophagy induction (U2OS [3]; [10]): -1.565% | autophagy induction (U2OS [3]; [11]): -0.7182% | autophagy induction (U2OS [3]; [12]): -1.565% | autophagy induction (U2OS [3]; [13]): 1.202% | autophagy induction (U2OS [3]; [14]): 0.8484% | autophagy induction (U2OS [3]; [15]): 0.458% | autophagy induction (U2OS [3]; [16]): -1.904% | autophagy induction (TERT-RPE1; [5]): -7.351% | autophagy induction (TERT-RPE1; [6]): -10.2554% | autophagy induction (TERT-RPE1; [7]): -12.7414% | autophagy induction (TERT-RPE1; [8]): -13.7381% | autophagy induction (TERT-RPE1; [9]): -4.799% | autophagy induction (TERT-RPE1; [10]): -6.124% | autophagy induction (TERT-RPE1; [11]): -8.583% | autophagy induction (TERT-RPE1; [12]): -9.595% | autophagy induction (TERT-RPE1; [13]): -1.3221% | autophagy induction (TERT-RPE1; [14]): -2.795% | autophagy induction (TERT-RPE1; [15]): -0.6234% | autophagy induction (TERT-RPE1; [16]): 3.817% | autophagy induction (U2OS [4]; [5]): 23.3711% | autophagy induction (U2OS [4]; [6]): 12.0378% | autophagy induction (U2OS [4]; [7]): 26.6789% | autophagy induction (U2OS [4]; [8]): 23.6658% | autophagy induction (U2OS [4]; [9]): -5.386% | autophagy induction (U2OS [4]; [10]): -5.642% | autophagy induction (U2OS [4]; [11]): -9.747% | autophagy induction (U2OS [4]; [12]): -4.534% | autophagy induction (U2OS [4]; [13]): -2.977% | autophagy induction (U2OS [4]; [14]): 0.8858% | autophagy induction (U2OS [4]; [15]): -1.59% | autophagy induction (U2OS [4]; [16]): 4.327%
